Holding throughout (experiment): relative viability (nuclei count vs DMSO), 5 days (fraction); higher = more cells survive
Compound in the assay “Selumetinib + Vorinostat”: Cn1cnc2c(F)c(Nc3ccc(Br)cc3Cl)c(C(=O)NOCCO)cc21 [Selumetinib] + O=C(CCCCCCC(=O)Nc1ccccc1)NO [Vorinostat] (partner 1 µM)
The method, boiled down:
(§1)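 Relative viability is defined as nuclei in treated wells over nuclei in vehicle wells. Duplicate plates were run and medians reported. Lung cancer cell lines in 1536-well plates were dosed by pin tool one day after seeding, with one drug or with a fixed anchor-drug dose plus five library-drug doses (not always all listed) in √10 steps, and nuclei were counted after 5 days.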

Compound in the assay “Selumetinib + Trametinib”: Cn1cnc2c(F)c(Nc3ccc(Br)cc3Cl)c(C(=O)NOCCO)cc21 [Selumetinib] + CC(=O)Nc1cccc(-n2c(=O)n(C3CC3)c(=O)c3c(Nc4ccc(I)cc4F)n(C)c(=O)c(C)c32)c1 [Trametinib] (partner 0.02 µM)
The gist of the method: as §1

Compound in the assay “Selumetinib + Pictilisib”: Cn1cnc2c(F)c(Nc3ccc(Br)cc3Cl)c(C(=O)NOCCO)cc21 [Selumetinib] + CS(=O)(=O)N1CCN(Cc2cc3nc(-c4cccc5[nH]ncc45)nc(N4CCOCC4)c3s2)CC1 [Pictilisib] (partner 1 µM)
The gist of the method: as §1

Compound in the assay “Venetoclax + Phenformin”: CC1(C)CCC(CN2CCN(c3ccc(C(=O)NS(=O)(=O)c4ccc(NCC5CCOCC5)c([N+](=O)[O-])c4)c(Oc4cnc5[nH]ccc5c4)c3)CC2)=C(c2ccc(Cl)cc2)C1 [Venetoclax] + N=C(N)NC(=N)NCCc1ccccc1 [Phenformin] (partner 250 µM)
The method, boiled down: as §1

As to NCI-H1355, the relative viability was found to be 0.561 with Selumetinib + Vorinostat (first compound 0.02 µM); 0.529 with Selumetinib + Vorinostat (first compound 0.06325 µM); 0.488 with Selumetinib + Vorinostat (first compound 0.2 µM); 0.382 with Selumetinib + Vorinostat (first compound 0.6325 µM); 0.407 with Selumetinib + Trametinib (first compound 0.02 µM); 0.459 in the assay with Selumetinib + Trametinib (first compound 0.06325 µM). Besides, the relative viability came to 0.464 with Selumetinib + Trametinib (first compound 0.2 µM); 0.416 with Selumetinib + Trametinib (first compound 0.6325 µM); 0.369 with Selumetinib + Pictilisib (first compound 0.02 µM); 0.409 with Selumetinib + Pictilisib (first compound 0.06325 µM); 0.315 with Selumetinib + Pictilisib (first compound 0.2 µM); 0.296 with Selumetinib + Pictilisib (first compound 0.6325 µM). The relative viability with Venetoclax + Phenformin (first compound 0.01 µM) is 0.436; with Venetoclax + Phenformin (first compound 0.03162 µM), 0.474; with Venetoclax + Phenformin (first compound 0.1 µM) it was 0.467; with Venetoclax + Phenformin (first compound 0.3162 µM), 0.468; with Venetoclax + Phenformin (first compound 1 µM) it was 0.412.

For NCI-H596, the relative viability with Selumetinib + Vorinostat (first compound 0.02 µM) is 0.368; with Selumetinib + Vorinostat (first compound 0.06325 µM), 0.557; with Selumetinib + Vorinostat (first compound 0.2 µM), 0.578; in the assay with Selumetinib + Vorinostat (first compound 0.6325 µM), 0.606; in the assay with Selumetinib + Trametinib (first compound 0.02 µM), 0.743; in the assay with Selumetinib + Trametinib (first compound 0.06325 µM), 0.881. Moreover, the relative viability with Selumetinib + Trametinib (first compound 0.2 µM) was 0.741; with Selumetinib + Trametinib (first compound 0.6325 µM), 0.607; in the assay with Selumetinib + Pictilisib (first compound 0.02 µM) it was 0.372; with Selumetinib + Pictilisib (first compound 0.06325 µM), 0.333; with Selumetinib + Pictilisib (first compound 0.2 µM) it was 0.31; with Selumetinib + Pictilisib (first compound 0.6325 µM), 0.296. In addition, the relative viability with Venetoclax + Phenformin (first compound 0.01 µM) was 0.818; with Venetoclax + Phenformin (first compound 0.03162 µM), 0.665; with Venetoclax + Phenformin (first compound 0.1 µM), 0.649; with Venetoclax + Phenformin (first compound 0.3162 µM), 0.809; in the assay with Venetoclax + Phenformin (first compound 1 µM), 0.659.

As to NCI-H1944, the relative viability with Selumetinib + Vorinostat (first compound 0.02 µM) came to 0.562; in the assay with Selumetinib + Vorinostat (first compound 0.06325 µM), 0.448; with Selumetinib + Vorinostat (first compound 0.2 µM) it was 0.441; with Selumetinib + Vorinostat (first compound 0.6325 µM), 0.491; with Selumetinib + Trametinib (first compound 0.02 µM) it was 0.442; in the assay with Selumetinib + Trametinib (first compound 0.06325 µM), 0.398. Further, the relative viability in the assay with Selumetinib + Trametinib (first compound 0.2 µM) came to 0.406; with Selumetinib + Trametinib (first compound 0.6325 µM), 0.389; with Selumetinib + Pictilisib (first compound 0.02 µM) it was 0.338; with Selumetinib + Pictilisib (first compound 0.06325 µM) it was 0.337; in the assay with Selumetinib + Pictilisib (first compound 0.2 µM), 0.275; with Selumetinib + Pictilisib (first compound 0.6325 µM) it was 0.319. Besides, the relative viability with Venetoclax + Phenformin (first compound 0.01 µM) came to 0.216; in the assay with Venetoclax + Phenformin (first compound 0.03162 µM), 0.197; in the assay with Venetoclax + Phenformin (first compound 0.1 µM), 0.183; with Venetoclax + Phenformin (first compound 0.3162 µM), 0.212; in the assay with Venetoclax + Phenformin (first compound 1 µM) it was 0.205.

As for NCI-H2085, the relative viability in the assay with Selumetinib + Vorinostat (first compound 0.02 µM) was found to be 0.76; with Selumetinib + Vorinostat (first compound 0.06325 µM), 0.757; with Selumetinib + Vorinostat (first compound 0.2 µM), 0.739; with Selumetinib + Vorinostat (first compound 0.6325 µM), 0.718; with Selumetinib + Trametinib (first compound 0.02 µM), 0.545; in the assay with Selumetinib + Trametinib (first compound 0.06325 µM) it was 0.62. Besides, the relative viability with Selumetinib + Trametinib (first compound 0.2 µM) is 0.398; in the assay with Selumetinib + Trametinib (first compound 0.6325 µM) it was 0.513; in the assay with Selumetinib + Pictilisib (first compound 0.02 µM), 0.449; with Selumetinib + Pictilisib (first compound 0.06325 µM) it was 0.374; in the assay with Selumetinib + Pictilisib (first compound 0.2 µM), 0.356; in the assay with Selumetinib + Pictilisib (first compound 0.6325 µM) it was 0.365. Further, the relative viability with Venetoclax + Phenformin (first compound 0.01 µM) was 0.635; with Venetoclax + Phenformin (first compound 0.03162 µM) it was 0.762; in the assay with Venetoclax + Phenformin (first compound 0.1 µM) it was 0.688; with Venetoclax + Phenformin (first compound 0.3162 µM), 0.766; with Venetoclax + Phenformin (first compound 1 µM), 0.655.

Take 201T: the relative viability in the assay with Selumetinib + Vorinostat (first compound 0.02 µM) stood at 0.929; in the assay with Selumetinib + Vorinostat (first compound 0.06325 µM) it was 0.876; with Selumetinib + Vorinostat (first compound 0.2 µM) it was 0.877; with Selumetinib + Vorinostat (first compound 0.6325 µM), 0.814; in the assay with Selumetinib + Trametinib (first compound 0.02 µM), 0.777; with Selumetinib + Trametinib (first compound 0.06325 µM) it was 0.698. The relative viability in the assay with Selumetinib + Trametinib (first compound 0.2 µM) is 0.723; with Selumetinib + Trametinib (first compound 0.6325 µM), 0.735; with Selumetinib + Pictilisib (first compound 0.02 µM) it was 0.641; with Selumetinib + Pictilisib (first compound 0.06325 µM), 0.693; with Selumetinib + Pictilisib (first compound 0.2 µM), 0.625; in the assay with Selumetinib + Pictilisib (first compound 0.6325 µM), 0.677. The relative viability was found to be 0.451 with Venetoclax + Phenformin (first compound 0.01 µM); 0.433 in the assay with Venetoclax + Phenformin (first compound 0.03162 µM); 0.456 in the assay with Venetoclax + Phenformin (first compound 0.1 µM); 0.466 with Venetoclax + Phenformin (first compound 0.3162 µM); 0.411 with Venetoclax + Phenformin (first compound 1 µM).

In the case of NCI-H2405, the relative viability with Selumetinib + Vorinostat (first compound 0.02 µM) is 1.18; with Selumetinib + Vorinostat (first compound 0.06325 µM), 1.04; in the assay with Selumetinib + Vorinostat (first compound 0.2 µM), 0.818; with Selumetinib + Vorinostat (first compound 0.6325 µM), 0.987; in the assay with Selumetinib + Trametinib (first compound 0.02 µM) it was 0.643; with Selumetinib + Trametinib (first compound 0.06325 µM), 0.638. The relative viability with Selumetinib + Trametinib (first compound 0.2 µM) was determined as 0.669; with Selumetinib + Trametinib (first compound 0.6325 µM), 0.615; with Selumetinib + Pictilisib (first compound 0.02 µM) it was 0.382; in the assay with Selumetinib + Pictilisib (first compound 0.06325 µM) it was 0.303; in the assay with Selumetinib + Pictilisib (first compound 0.2 µM), 0.269; with Selumetinib + Pictilisib (first compound 0.6325 µM), 0.26. The relative viability with Venetoclax + Phenformin (first compound 0.01 µM) was 0.343; in the assay with Venetoclax + Phenformin (first compound 0.03162 µM), 0.357; with Venetoclax + Phenformin (first compound 0.1 µM), 0.348; with Venetoclax + Phenformin (first compound 0.3162 µM), 0.404; with Venetoclax + Phenformin (first compound 1 µM), 0.379.

Consider LXF-289, for which the relative viability worked out at 0.734 in the assay with Selumetinib + Vorinostat (first compound 0.02 µM); 0.668 with Selumetinib + Vorinostat (first compound 0.06325 µM); 0.595 with Selumetinib + Vorinostat (first compound 0.2 µM); 0.661 with Selumetinib + Vorinostat (first compound 0.6325 µM); 0.717 in the assay with Selumetinib + Trametinib (first compound 0.02 µM); 0.616 with Selumetinib + Trametinib (first compound 0.06325 µM). For the same cell line, the relative viability came to 0.673 with Selumetinib + Trametinib (first compound 0.2 µM); 0.701 in the assay with Selumetinib + Trametinib (first compound 0.6325 µM); 0.735 with Selumetinib + Pictilisib (first compound 0.02 µM); 0.615 in the assay with Selumetinib + Pictilisib (first compound 0.06325 µM); 0.537 in the assay with Selumetinib + Pictilisib (first compound 0.2 µM); 0.552 with Selumetinib + Pictilisib (first compound 0.6325 µM). Besides, the relative viability with Venetoclax + Phenformin (first compound 0.01 µM) is 0.482; in the assay with Venetoclax + Phenformin (first compound 0.03162 µM), 0.538; with Venetoclax + Phenformin (first compound 0.1 µM), 0.509; with Venetoclax + Phenformin (first compound 0.3162 µM) it was 0.503; in the assay with Venetoclax + Phenformin (first compound 1 µM), 0.505.

As to LC-2-ad, the relative viability with Selumetinib + Vorinostat (first compound 0.02 µM) turned out to be 0.653; in the assay with Selumetinib + Vorinostat (first compound 0.06325 µM), 0.723; with Selumetinib + Vorinostat (first compound 0.2 µM) it was 0.665; with Selumetinib + Vorinostat (first compound 0.6325 µM), 0.67; in the assay with Selumetinib + Trametinib (first compound 0.02 µM) it was 0.954; with Selumetinib + Trametinib (first compound 0.06325 µM), 0.88. Also, the relative viability with Selumetinib + Trametinib (first compound 0.2 µM) was 0.822; with Selumetinib + Trametinib (first compound 0.6325 µM), 0.9; with Selumetinib + Pictilisib (first compound 0.02 µM), 0.482; with Selumetinib + Pictilisib (first compound 0.06325 µM), 0.426; in the assay with Selumetinib + Pictilisib (first compound 0.2 µM) it was 0.432; with Selumetinib + Pictilisib (first compound 0.6325 µM), 0.437. The relative viability with Venetoclax + Phenformin (first compound 0.01 µM) turned out to be 0.595; with Venetoclax + Phenformin (first compound 0.03162 µM) it was 0.606; with Venetoclax + Phenformin (first compound 0.1 µM), 0.551; in the assay with Venetoclax + Phenformin (first compound 0.3162 µM), 0.616; in the assay with Venetoclax + Phenformin (first compound 1 µM), 0.565.

The values are drawn from the supplement of paper PMC10307832.
